According to US9855239B2, “Methods for the treatment and prevention of age-related retinal dysfunction” (University of Washington, priority 2008, dated 2018):
“Also recorded” adds a separate entry of the source.

Experiments:
C57BL/6 female mice [1] = assay: Single-flash ERG after single dose treatment, bleach and dark adaptation; format: in vivo, mouse; conditions: single dose ~80 mg/kg gavage, 10-month-old mice, 20 min bleach at 500 cd·m^−2, 16 hr dark adaptation; vs control (a-waves P<0.01)
Experimental: (§1) Forty eight hr dark-adapted, 10-month-old mice were gavaged with a single dose (˜80 mg/kg body weight) of 9-cis-R-Ac or control vehicle and exposed to strong illumination for 20 min (500 cd·m^−2 that bleached ˜90% rhodopsin). Next, mice were dark-adapted for 16 hr after which various analyses were performed (FIG. 1A). […] To investigate whether 9-cis-retinal was utilized to form isorhodopsin and to assess how much unliganded opsin was present in the mouse eyes, rhodopsin, isorhodopsin and opsin were purified by immunoaffinity chromatography from treated and control groups of mice. […] After bleaching, 9-cis-retinal is bound to opsin even in the presence of a functional retinoid cycle that produces 11-cis-retinal to regenerate rhodopsin. Eyes from non-bleached or bleached and dark-adapted untreated mice contained a small amount of free opsin.
9-cis-R-Ac was prepared as previously described (Batten, M. L., et al. PLoS medicine 2, e333 (2005); Batten, M. L., et al. J Biol Chem 279, 10422-10432 (2004)). A dose of ˜80 mg/kg body weight of 9-cis-R-Ac in 150 μl vegetable oil was administered via gavage to each treated animal. […]
(§2) ERGs of anesthetized mice were recorded as previously reported.

rhodopsin/opsin = molecular target: T1, rhodopsin/opsin (Mus musculus, UniProt P15409); assay: Rhodopsin regeneration ratio of immunoaffinity-purified rhodopsin/opsin, single dose; format: in vivo
T1 construct: from tissue; host or cells: whole eyes of wild-type C57BL/6 female mice
T1 sequence (P15409 whole entry): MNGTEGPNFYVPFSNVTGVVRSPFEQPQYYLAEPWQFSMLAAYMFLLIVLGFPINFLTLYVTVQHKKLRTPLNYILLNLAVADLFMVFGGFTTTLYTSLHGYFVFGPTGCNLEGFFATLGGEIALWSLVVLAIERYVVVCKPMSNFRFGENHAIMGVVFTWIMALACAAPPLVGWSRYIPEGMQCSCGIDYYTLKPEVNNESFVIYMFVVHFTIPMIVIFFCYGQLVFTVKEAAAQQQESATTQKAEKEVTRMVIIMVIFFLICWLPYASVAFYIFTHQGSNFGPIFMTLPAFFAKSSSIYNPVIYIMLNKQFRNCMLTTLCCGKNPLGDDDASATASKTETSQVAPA
Experimental: as §1
9-cis-R-Ac was prepared as previously described (Batten, M. L., et al. PLoS medicine 2, e333 (2005); Batten, M. L., et al. J Biol Chem 279, 10422-10432 (2004)). A dose of ˜80 mg/kg body weight of 9-cis-R-Ac in 150 μl vegetable oil was administered via gavage to each treated animal. Prior to single dose experiments (FIG. 1A, Table 1), 10-month-old mice were dark-adapted for more than 48 hr, gavaged with 9-cis-R-Ac or vehicle control solution 1 hr before bleaching, exposed to light for 20 min at 500 cd·m^−2 and dark-adapted for 16 hr before analysis.
Rhodopsin purification was done under dim red light as previously described (Zhu, L., et al. J Biot Chem, 279, 53828-53839 (2004)). […] Purified rhodopsin concentration was determined at 500 nm and total amount of opsin and rhodopsin at 280 nm with a Hewlett-Packard 8452A UV-visible spectrophotometer (Palczewski, K., Carruth, M. E., Adamus, G., McDowell, J. H. & Hargrave, P. A. Vision Research, 30, 1129-1137 (1990)). […]

C57BL/6 female mice [2] = assay: Recovery of ERG response (dark adaptation) after bleach, long-term treatment; format: in vivo, mouse; conditions: 500 cd·m^−2 for 3 min, 60 min dark adaptation
Experimental: Recovery of the ERG response (dark adaptation) following bleach was measured by monitoring the amplitude of a-waves after retinal exposure to intense constant illumination (500 cd·m^−2, ˜90% bleached rhodopsin) for 3 min. […] Retinoid kinetics in the eyes of each group were quantitatively evaluated during 60 min of dark adaptation after 3 min of bleaching at four subsequent time points of dark adaptation (0, 10, 30, and 60 min). […] Neither 9-cis-retinal nor 9-cis-retinyl esters were found in eyes from untreated groups (data not shown).
Six groups of mice were studied (FIG. 1B).
Two weeks after the last gavage with either, 9-cis-R-Ac, all-trans-R-Ac or vehicle, groups of 48 hr dark-adapted mice were analyzed for recovery of dark adaptation after light exposure, purified rhodopsin/opsin and retinoids in the eye and retinal morphology (FIG. 1C; Methods). Mice were exposed to light of intensity 500 cd·m^−2 that bleached ˜90% of rhodopsin, anesthetized and monitored by ERG for one hr to evaluate recovery of dark adaptation. Rhodopsin was purified and rhodopsin/opsin ratios was determined. Retinoid analyses were performed on dissected eyes removed at 0, 10, 30, and 60 min after exposure to the same amount of light. Mice used to evaluate retinal morphology were not exposed to photobleaching prior to analysis.
as §2

Compound: CC(=O)OC/C=C(C)/C=C/C=C(C)\C=C\C1=C(C)CCCC1(C)C [9-cis-R-Ac, 9-cis-retinyl acetate]
- functional a- and b-wave amplitudes, single-flash ERG (C57BL/6 female mice [1]): slightly increased
- regeneration ratio of rhodopsin (absorbance 498 nm/280 nm) (rhodopsin/opsin; single dose ~80 mg/kg gavage, 10-month-old mice, bleached, 16 hr dark-adapted, treated vs control, 80 mg/kg): significantly higher; also recorded: improved; also recorded: slightly higher
- 9-cis-retinal extracted from purified proteins (bound chromophore) (rhodopsin/opsin; single dose, samples from treated mice): a significant amount of 9-cis-retinal was detected
- total amount of purified protein (rhodopsin/opsin; single dose, treated vs control): did not significantly differ
- recovery of ERG a-wave response (dark adaptation) after bleach (C57BL/6 female mice [2]; 10 months of age, N1 vs C1): significantly faster; also recorded: significantly higher; also recorded: restored the rate of recovery to that seen in 4-month-old mice
- recovery of ERG a-wave response (dark adaptation) after bleach (C57BL/6 female mice [2]; 14 months of age, treated (9-cis-R-Ac: N2 and N3) vs C2): significantly faster; also recorded: significantly higher recovery rate
